According to PMC5971037, “Synthesis and evaluation of antimicrobial, antitubercular and anticancer activities of 2-(1-benzoyl-1H-benzo[d]imidazol-2-ylthio)-N-substituted acetamides” (Chemistry Central Journal, 2018):
Values after ≈ are worked out from the molar mass of the structure shown. Like-named read-outs stand apart in the source and are kept apart here.

How the values were obtained:
[1] = test system: S. typhi; test: Tube dilution MIC; type: cell-based; conditions: Salmonella enterica, 24 h, read-out: MIC S. typhi
[2] = test system: C. albicans; test: microbe, parasite or virus in culture; conditions: Candida albicans, 48 h, read-out: MIC C. albicans
[3] = test system: C. albicans; test: MFC by subculturing; type: cell-based
Description: (§1) The minimum bactericidal concentration (MBC) and minimum fungicidal concentration (MFC) of the synthesized benzimidazole derivatives was determined by subculturing 100 µl of culture from each tube that remained clear in MIC determination onto sterilized petri-plates containing fresh agar medium. The petri-plates were incubated and analyzed for microbial growth visually.

[4] = test system: A. niger; test: MFC by subculturing; type: cell-based
Description: as §1

[5] = test system: HCT116 (human colorectal) cell line; test: Sulforhodamine-B (SRB) cytotoxicity assay; type: cell-based
[6] = test system: M. tuberculosis H37Rv (NCFT/TB/537); test: Well diffusion susceptibility test (zone of inhibition); type: cell-based; conditions: Mycobacterium tuberculosis, 672 h, read-out: Diameter of zone of inhibition against H37Rv (NCFT/TB/537), wells of 8 mm, 50 µg/ml test compound, 25 µg/ml standard drug, 4 weeks, NA = no activity
[7] = test system: B. subtilis; test: MBC by subculturing; type: cell-based
Description: as §1

[8] = test system: E. coli; test: MBC by subculturing; type: cell-based; conditions: Escherichia coli
Description: as §1

[9] = test system: B. cereus; test: MBC by subculturing; type: cell-based
Description: as §1

[10] = test system: S. aureus; test: MBC by subculturing; type: cell-based; conditions: Staphylococcus aureus
Description: as §1

[11] = test system: S. typhi; test: MBC by subculturing; type: cell-based; conditions: Salmonella enterica, read-out: MBC S. typhi
Description: as §1

[12] = test system: MCF7 (human breast cancer) cell line; test: Sulforhodamine-B (SRB) cytotoxicity assay; type: cell-based
[13] = test system: M. tuberculosis H37Rv; test: Minimum lethal concentration (MLC); type: cell-based; conditions: Mycobacterium tuberculosis, NA = no activity, read-out: MLC against M. tuberculosis H37Rv
[14] = test system: S. aureus; test: Tube dilution MIC; conditions: Staphylococcus aureus, 24 h, read-out: MIC S. aureus
[15] = test system: M. tuberculosis H37Rv; test: MIC by microplate alamar blue assay; type: cell-based; conditions: Mycobacterium tuberculosis, NA = no activity, read-out: MIC against M. tuberculosis H37Rv
[16] = target: mycobacterial isocitrate lyase (Mycobacterium tuberculosis, UniProt P9WKK7); test: Mycobacterial isocitrate lyase (ICL) assay; type: biochemical, M. tuberculosis H37Rv; conditions: read-out: Percent inhibition of enzyme, M. ICL activity
Chain of mycobacterial isocitrate lyase (P9WKK7 whole entry): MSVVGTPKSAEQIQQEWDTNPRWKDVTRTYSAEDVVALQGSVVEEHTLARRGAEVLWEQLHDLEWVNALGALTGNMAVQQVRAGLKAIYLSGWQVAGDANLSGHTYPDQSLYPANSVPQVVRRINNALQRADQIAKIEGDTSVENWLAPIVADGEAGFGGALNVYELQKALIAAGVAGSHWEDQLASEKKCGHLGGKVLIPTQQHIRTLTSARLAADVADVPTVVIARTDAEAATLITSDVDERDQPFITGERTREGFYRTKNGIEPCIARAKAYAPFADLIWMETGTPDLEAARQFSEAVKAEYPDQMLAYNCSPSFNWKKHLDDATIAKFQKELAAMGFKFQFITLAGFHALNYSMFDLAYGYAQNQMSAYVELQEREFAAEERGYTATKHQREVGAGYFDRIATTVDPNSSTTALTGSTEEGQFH
Description: The compounds found potent in in vivo evaluation were assayed for inhibition of mycobacterial enzymes viz., isocitrate lyase, pantothenate synthetase and chorismate mutase.
Isocitrate lyase activity was assayed according to the protocol reported by Dixon and Kornberg (glyoxylate phenyl hydrazone formation) at 10 μM of the compounds.

[17] = test system: E. coli; test: Tube dilution MIC; conditions: Escherichia coli, 24 h, read-out: MIC E. coli
[18] = test system: A. niger; test: microbe, parasite or virus in culture; conditions: Aspergillus niger, 168 h, read-out: MIC A. niger
[19] = test system: B. cereus; test: Tube dilution MIC; conditions: Bacillus cereus, 24 h, read-out: MIC B. cereus
[20] = In vivo LD50, ED50 and toxic dose in mice models; conditions: mouse, dose that killed 50% of the mice population within the group
Description: The LD50 and ED50 were determined for the active compounds in mice models infected with Mycobacterium H37Rv (Table 4). […] Thus, ED50 of 1.34 mg/kg was considered safe for each of the compounds. It was observed that this dose was effective and safe for mice in different groups before infecting the mice models with specific TB bacteria as no mortality of any single animal was recorded.
The LD50 (lethal dose) and ED50 (optimum/effective dose) doses were determined for the active compounds in mice models infected with Mycobacterium H37Rv via ethical permission no., NCFT/EC/16/2313 assigned to Collaborative Research Group (CRG), NCFT, New Delhi, India.

[21] = test system: B. subtilis; test: Tube dilution MIC; conditions: Bacillus subtilis, 24 h, read-out: MIC B. subtilis
[22] = test system: Gram positive as well as Gram negative bacterial species; test: Tube dilution MIC, bacteria overall; type: cell-based
[23] = Candida albicans, read-out: MFC C. albicans
[24] = Aspergillus niger, read-out: MFC A. niger
[25] = Bacillus subtilis, read-out: MBC B. subtilis
[26] = Bacillus cereus, read-out: MBC B. cereus
[27] = Candida albicans; read-out: MFC C. albicans
[28] = Aspergillus niger; read-out: MFC A. niger
[29] = HCT-116, SRB assay, HCT116 cell line, read-out: IC50 HCT116
[30] = Bacillus subtilis; read-out: MBC B. subtilis
[31] = Bacillus cereus; read-out: MBC B. cereus
[32] = SRB assay, MCF7 cell line, read-out: IC50 MCF7

SMILES | MIC [1] [µM] | MIC [2] [µM] | MFC [3, 23] [µg/mL] | MFC [4, 24] [µg/mL] | IC50 ([5]; HCT-116, read-out: IC50 HCT116) [µM] | zone of inhibition at 50 µg/mL [6] [mm] | MBC [7, 25] [µg/mL] | MBC [8] [µg/mL] | MBC [9, 26] [µg/mL] | MBC [10] [µg/mL] | MBC [11] [µg/mL] | IC50 ([12]; MCF7, read-out: IC50 MCF7) [µM] | MBC [13] [µg/mL] | MIC [14] [µM] | MIC [15] [µg/mL] | inhibition at 10 µM [16] [%] | MIC [17] [µM] | MIC [18] [µM] | MIC [19] [µM] | MIC [21] [µM] | also measured
O=C(CSc1nc2ccccc2n1C(=O)c1ccccc1)Nc1ccc(F)cc1 [Compound 3, 2-(1-Benzoyl-1H-benzo[d]imidazol-2-ylthio)-N-(4-fluorophenyl)acetamide] | 31 (≈ 12.6 µg/mL) | 15 (≈ 6.08 µg/mL) | 25 (≈ 61.7 µM) | > 50 | 197 | > 20 | > 50 | 50 (≈ 123 µM) | > 50 | > 50 | > 50 | 24.7 | 25 (≈ 61.7 µM) | 31 (≈ 12.6 µg/mL) | 12.5 (≈ 30.8 µM) | 52.6 | 31 (≈ 12.6 µg/mL) | 31 (≈ 12.6 µg/mL) | 31 (≈ 12.6 µg/mL) | 31 (≈ 12.6 µg/mL) | LD50 [20]: 1.87 mg/kg
O=C(CSc1nc2ccccc2n1C(=O)c1ccccc1)Nc1ccccc1Cl [Compound 4, 2-(1-Benzoyl-1H-benzo[d]imidazol-2-ylthio)-N-(2-chlorophenyl)acetamide] | 30 (≈ 12.7 µg/mL) | 15 (≈ 6.33 µg/mL) | 25 (≈ 59.3 µM) | > 50 | 59.4 | > 20 | > 50 | 50 (≈ 119 µM) | > 50 | 50 (≈ 119 µM) | 50 (≈ 119 µM) | 35.6 | 25 (≈ 59.3 µM) | 30 (≈ 12.7 µg/mL) | 12.5 (≈ 29.6 µM) | 48.5 | 30 (≈ 12.7 µg/mL) | 30 (≈ 12.7 µg/mL) | 30 (≈ 12.7 µg/mL) | 30 (≈ 12.7 µg/mL) | LD50 [20]: 1.96 mg/kg
O=C(CSc1nc2ccccc2n1C(=O)c1ccccc1)Nc1cc(Cl)ccc1Cl [Compound 6, 2-(1-Benzoyl-1H-benzo[d]imidazol-2-ylthio)-N-(2,5-dichlorophenyl)acetamide] | 27 (≈ 12.3 µg/mL) | 14 (≈ 6.39 µg/mL) | 50 (≈ 110 µM) | > 50 | 83.3 | > 20 | > 50 | > 50 | > 50 | > 50 | 25 (≈ 54.8 µM) | 89.8 | 25 (≈ 54.8 µM) | 27 (≈ 12.3 µg/mL) | 12.5 (≈ 27.4 µM) | 56.8 | 27 (≈ 12.3 µg/mL) | 27 (≈ 12.3 µg/mL) | 27 (≈ 12.3 µg/mL) | 27 (≈ 12.3 µg/mL) | LD50 [20]: 1.86 mg/kg
O=C(CSc1nc2ccccc2n1C(=O)c1ccccc1)Nc1ccccc1Br [Compound 7, 2-(1-Benzoyl-1H-benzo[d]imidazol-2-ylthio)-N-(2-bromophenyl)acetamide] | 27 (≈ 12.6 µg/mL) | 27 (≈ 12.6 µg/mL) |  |  |  | 10 |  | 50 (≈ 107 µM) |  | 50 (≈ 107 µM) | > 50 |  | 28 (≈ 60 µM) | 27 (≈ 12.6 µg/mL) | 15 (≈ 32.2 µM) |  | 27 (≈ 12.6 µg/mL) | 27 (≈ 12.6 µg/mL) | 27 (≈ 12.6 µg/mL) | 27 (≈ 12.6 µg/mL) | MFC [3, 27]: 50 µg/mL (≈ 107 µM); MFC [4, 28]: > 50 µg/mL; IC50 [5, 29]: 96.5 µM; MBC [7, 30]: > 50 µg/mL; MBC [9, 31]: > 50 µg/mL; IC50 [12, 32]: 55.8 µM; MIC against Gram positive as well as Gram negative bacterial species [22]: 0.027 µM/ml
O=C(CSc1nc2ccccc2n1C(=O)c1ccccc1)Nc1ccc(Br)cc1 [Compound 9, 2-(1-Benzoyl-1H-benzo[d]imidazol-2-ylthio)-N-(4-bromophenyl)acetamide] | 27 (≈ 12.6 µg/mL) | 13 (≈ 6.06 µg/mL) |  |  |  | 8 |  | > 50 |  | > 50 | 50 (≈ 107 µM) |  | 28.1 (≈ 60.3 µM) | 27 (≈ 12.6 µg/mL) | 17.8 (≈ 38.2 µM) |  | 27 (≈ 12.6 µg/mL) | 27 (≈ 12.6 µg/mL) | 27 (≈ 12.6 µg/mL) | 27 (≈ 12.6 µg/mL) | MFC [3, 27]: 50 µg/mL (≈ 107 µM); MFC [4, 28]: > 50 µg/mL; IC50 [5, 29]: 64.3 µM; MBC [7, 30]: > 50 µg/mL; MBC [9, 31]: > 50 µg/mL; IC50 [12, 32]: > 214 µM; MIC against Gram positive as well as Gram negative bacterial species [22]: 0.027 µM/ml
O=C(CSc1nc2ccccc2n1C(=O)c1ccccc1)Nc1cccc([N+](=O)[O-])c1 [Compound 10, 2-(1-Benzoyl-1H-benzo[d]imidazol-2-ylthio)-N-(3-nitrophenyl)acetamide] | 29 (≈ 12.5 µg/mL) | 15 (≈ 6.49 µg/mL) | > 50 | > 50 | 5.8 | > 20 | 50 (≈ 116 µM) | > 50 | > 50 | 50 (≈ 116 µM) | 50 (≈ 116 µM) | 78.6 | 25 (≈ 57.8 µM) | 29 (≈ 12.5 µg/mL) | 12.5 (≈ 28.9 µM) | 61.2 | 29 (≈ 12.5 µg/mL) | 29 (≈ 12.5 µg/mL) | 29 (≈ 12.5 µg/mL) | 29 (≈ 12.5 µg/mL) | LD50 [20]: 1.83 mg/kg
Cc1ccc(NC(=O)CSc2nc3ccccc3n2C(=O)c2ccccc2)cc1 [Compound 12, 2-(1-Benzoyl-1H-benzo[d]imidazol-2-ylthio)-N-p-tolylacetamide] | 31 (≈ 12.4 µg/mL) | 16 (≈ 6.42 µg/mL) | 25 (≈ 62.3 µM) | > 50 | 39.8 | > 20 | > 50 | 50 (≈ 125 µM) | > 50 | > 50 | 50 (≈ 125 µM) | 124 | 25 (≈ 62.3 µM) | 31 (≈ 12.4 µg/mL) | 12.5 (≈ 31.1 µM) | 43.5 | 31 (≈ 12.4 µg/mL) | 31 (≈ 12.4 µg/mL) | 31 (≈ 12.4 µg/mL) | 31 (≈ 12.4 µg/mL) | LD50 [20]: 1.85 mg/kg
Cc1cccc(C)c1NC(=O)CSc1nc2ccccc2n1C(=O)c1ccccc1 [Compound 13, 2-(1-Benzoyl-1H-benzo[d]imidazol-2-ylthio)-N-(2,6-dimethylphenyl)acetamide] | 30 (≈ 12.5 µg/mL) | 15 (≈ 6.23 µg/mL) | 25 (≈ 60.2 µM) | > 50 | 96.3 | > 20 | > 50 | 50 (≈ 120 µM) | > 50 | 50 (≈ 120 µM) | > 50 | 135 | 25 (≈ 60.2 µM) | 30 (≈ 12.5 µg/mL) | 12.5 (≈ 30.1 µM) | 56.5 | 30 (≈ 12.5 µg/mL) | 30 (≈ 12.5 µg/mL) | 30 (≈ 12.5 µg/mL) | 30 (≈ 12.5 µg/mL) | LD50 [20]: 2.14 mg/kg
O=C(CSc1nc2ccccc2n1C(=O)c1ccccc1)Nc1ccc(Cl)cc1 [Compound 15, 2-(1-Benzoyl-1H-benzo[d]imidazol-2-ylthio)-N-(4-chlorophenyl)acetamide] | 59 (≈ 24.9 µg/mL) | 30 (≈ 12.7 µg/mL) | > 50 | > 50 | 59.4 | > 20 | > 50 | 50 (≈ 119 µM) | > 50 | 50 (≈ 119 µM) | > 50 | 95 | 25 (≈ 59.3 µM) | 30 (≈ 12.7 µg/mL) | 12.5 (≈ 29.6 µM) | 61.6 | 30 (≈ 12.7 µg/mL) | 30 (≈ 12.7 µg/mL) | 30 (≈ 12.7 µg/mL) | 30 (≈ 12.7 µg/mL) | LD50 [20]: 2.67 mg/kg
